# From patent publication US20040224884A1, “Methods of screening for apoptosis-controlling agents for bone anabolic therapies and uses thereof” (priority 1998, published 2004)
# System: osteoblastic cells derived from murine calvaria
# Experiment: Etoposide-induced apoptosis of osteoblastic cells, trypan blue uptake
# Type: cell-based
# Experimental: Osteoblastic cells derived from murine calvaria were pretreated with the sterols for 1 hour before the addition of the pro-apoptotic agent, etoposide. Apoptosis was determined after 6 hours by trypan blue uptake (Jilka et al, J. Bone and Min. Res. 13:793:802, 1998). * indicates p<0.05 versus etoposide alone, by analysis of variance (ANOVA) (Student-Newman-Keuls method).
# Osteoblastic cells derived from murine calvaria were pretreated for 1 hour with the pure receptor antagonist ICI182,780 (10^−7 M) before the addition of the test agents (10^−8 M). Apoptosis was induced and quantified as described in FIG. 3. * indicates p<0.05 versus etoposide alone, by ANOVA (Student-Newman-Keuls method).
# In this experiment, osteoblastic cells were derived from murine calvaria and were pretreated with the sterols for 1 hour before the addition of the pro-apoptotic agent, etoposide.
# In these experiments, cells were pretreated with the indicated concentrations of the various compounds for 1 hour, in the absence or presence of the androgen receptor antagonist flutamide, before the addition of the proapoptotic agent etoposide. Apoptosis was determined after 6 hours by trypan blue uptake as described in FIG. 3.
smiles,measurement,setting,value
C[C@@]12CCC[C@H]1[C@@H]1CCc3cc(O)ccc3[C@H]1CC2 [estratriene-3-ol],potency in inhibiting apoptosis relative to 17β estradiol,,as potent a s 17β estradiol
same,inhibition of etoposide-induced osteoblastic cell apoptosis,"pretreated 1 hour before etoposide, apoptosis after 6 hours by trypan blue uptake",inhibition of etoposide-induced osteoblastic cell apoptosis was demonstrated
same,"anti-apoptotic effect on osteoblastic cells after pretreatment with ICI182,780","test agent 10^−8 M, ICI182,780 10^−7 M, 1 h pretreatment",abrogated
